# Columns and labels:
# Assay type in all cases: functional
# [1] = test system: Enterococcus faecium; test: Antibacterial activity against Enterococcus faecium ATCC 19434 assessed as growth inhibition by broth dilution method
# [2] = test system: Listeria monocytogenes; test: Antibacterial activity against Listeria monocytogenes ATCC […] assessed as growth inhibition by broth dilution method
# [3] = test system: Staphylococcus aureus; test: Antibacterial activity against Staphylococcus aureus ATCC 29213 assessed as growth inhibition by broth dilution method
# [4] = test system: Enterococcus faecalis; test: Antibacterial activity against Enterococcus faecalis ATCC 29212 assessed as growth inhibition by broth dilution method
# [5] = test system: Acinetobacter baumannii; test: Antibacterial activity against Acinetobacter baumannii ATCC 19606 assessed as growth inhibition by broth dilution method
# [6] = test system: Klebsiella pneumoniae; test: Antibacterial activity against Klebsiella pneumoniae ATCC 13883 assessed as growth inhibition by broth dilution method
# [7] = test system: Campylobacter jejuni; test: Antibacterial activity against Campylobacter jejuni NCTC 11168 assessed as growth inhibition by broth dilution method
# [8] = test system: Salmonella enterica; test: Antibacterial activity against Salmonella enterica ATCC 13311 assessed as growth inhibition by broth dilution method
# [9] = test system: Pseudomonas aeruginosa; test: Antibacterial activity against Pseudomonas aeruginosa ATCC 27853 assessed as growth inhibition by broth dilution method
# [10] = test system: Escherichia coli; test: Antibacterial activity against Escherichia coli ATCC 25922 assessed as growth inhibition by broth dilution method
MIC [1] [µg/mL],MIC [2] [µg/mL],MIC [3] [µg/mL],MIC [4] [µg/mL],MIC [5] [µg/mL],MIC [6] [µg/mL],MIC [7] [µg/mL],MIC [8] [µg/mL],MIC [9] [µg/mL],MIC [10] [µg/mL],SMILES
> 100,100,> 100,> 100,25,6.25,1.56,6.25,50,6.25,CC[C@H](C)CC[C@H](O)CC(=O)N[C@@H](C(=O)N[C@H](CCN)C(=O)NCC(=O)N[C@H](CO)C(=O)N[C@H](Cc1c[nH]c2ccccc12)C(=O)N[C@@H](CO)C(=O)N[C@@H](CCN)C(=O)N[C@H](CCN)C(=O)N[C@@H](Cc1ccccc1)C(=O)N[C@@H](CCC(=O)O)C(=O)N[C@H](C(=O)N[C@@H](C(=O)N[C@@H](C)C(=O)O)[C@@H](C)CC)C(C)C)C(C)C
> 100,> 100,> 100,> 100,50,12.5,3.13,25,100,12.5,CC[C@@H](C)CC[C@H](O)CC(=O)N[C@@H](C(=O)N[C@H](CCN)C(=O)NCC(=O)N[C@H](CO)C(=O)N[C@H](Cc1c[nH]c2ccccc12)C(=O)N[C@@H](CO)C(=O)N[C@@H](CCN)C(=O)N[C@H](CCN)C(=O)N[C@@H](Cc1ccccc1)C(=O)N[C@@H](CCC(=O)O)C(=O)N[C@H](C(=O)N[C@@H](C(=O)N[C@@H](C)C(=O)O)[C@@H](C)CC)C(C)C)C(C)C
> 100,> 100,> 100,> 100,> 100,50,100,100,> 100,50,CC[C@H](C)[C@@H](NC(=O)[C@@H](NC(=O)[C@H](CCC(=O)O)NC(=O)[C@H](Cc1ccccc1)NC(=O)[C@@H](CCN)NC(=O)[C@H](CCN)NC(=O)[C@H](CO)NC(=O)[C@@H](Cc1c[nH]c2ccccc12)NC(=O)[C@@H](CO)NC(=O)CNC(=O)[C@@H](CCN)NC(=O)[C@H](NC(C)=O)C(C)C)C(C)C)C(=O)N[C@@H](C)C(=O)O
> 100,100,> 100,> 100,25,3.13,3.13,6.25,50,3.13,CCCCCC(=O)N[C@@H](C(=O)N[C@H](CCN)C(=O)NCC(=O)N[C@H](CO)C(=O)N[C@H](Cc1c[nH]c2ccccc12)C(=O)N[C@@H](CO)C(=O)N[C@@H](CCN)C(=O)N[C@H](CCN)C(=O)N[C@@H](Cc1ccccc1)C(=O)N[C@@H](CCC(=O)O)C(=O)N[C@H](C(=O)N[C@@H](C(=O)N[C@@H](C)C(=O)O)[C@@H](C)CC)C(C)C)C(C)C
> 100,50,> 100,> 100,12.5,6.25,1.56,12.5,50,6.25,CCCCCCC(=O)N[C@@H](C(=O)N[C@H](CCN)C(=O)NCC(=O)N[C@H](CO)C(=O)N[C@H](Cc1c[nH]c2ccccc12)C(=O)N[C@@H](CO)C(=O)N[C@@H](CCN)C(=O)N[C@H](CCN)C(=O)N[C@@H](Cc1ccccc1)C(=O)N[C@@H](CCC(=O)O)C(=O)N[C@H](C(=O)N[C@@H](C(=O)N[C@@H](C)C(=O)O)[C@@H](C)CC)C(C)C)C(C)C
100,25,100,100,50,12.5,0.78,6.25,100,12.5,CCCCCCCCC(=O)N[C@@H](C(=O)N[C@H](CCN)C(=O)NCC(=O)N[C@H](CO)C(=O)N[C@H](Cc1c[nH]c2ccccc12)C(=O)N[C@@H](CO)C(=O)N[C@@H](CCN)C(=O)N[C@H](CCN)C(=O)N[C@@H](Cc1ccccc1)C(=O)N[C@@H](CCC(=O)O)C(=O)N[C@H](C(=O)N[C@@H](C(=O)N[C@@H](C)C(=O)O)[C@@H](C)CC)C(C)C)C(C)C
100,25,> 100,> 100,12.5,6.25,0.4,12.5,> 100,6.25,CCCCCCCCCC(=O)N[C@@H](C(=O)N[C@H](CCN)C(=O)NCC(=O)N[C@H](CO)C(=O)N[C@H](Cc1c[nH]c2ccccc12)C(=O)N[C@@H](CO)C(=O)N[C@@H](CCN)C(=O)N[C@H](CCN)C(=O)N[C@@H](Cc1ccccc1)C(=O)N[C@@H](CCC(=O)O)C(=O)N[C@H](C(=O)N[C@@H](C(=O)N[C@@H](C)C(=O)O)[C@@H](C)CC)C(C)C)C(C)C
100,25,> 100,> 100,12.5,6.25,0.4,12.5,> 100,6.25,CCCCCCCCCCC(=O)N[C@@H](C(=O)N[C@H](CCN)C(=O)NCC(=O)N[C@H](CO)C(=O)N[C@H](Cc1c[nH]c2ccccc12)C(=O)N[C@@H](CO)C(=O)N[C@@H](CCN)C(=O)N[C@H](CCN)C(=O)N[C@@H](Cc1ccccc1)C(=O)N[C@@H](CCC(=O)O)C(=O)N[C@H](C(=O)N[C@@H](C(=O)N[C@@H](C)C(=O)O)[C@@H](C)CC)C(C)C)C(C)C
> 100,> 100,> 100,> 100,> 100,> 100,12.5,> 100,> 100,> 100,CCCCCCCCCCCCCC(=O)N[C@@H](C(=O)N[C@H](CCN)C(=O)NCC(=O)N[C@H](CO)C(=O)N[C@H](Cc1c[nH]c2ccccc12)C(=O)N[C@@H](CO)C(=O)N[C@@H](CCN)C(=O)N[C@H](CCN)C(=O)N[C@@H](Cc1ccccc1)C(=O)N[C@@H](CCC(=O)O)C(=O)N[C@H](C(=O)N[C@@H](C(=O)N[C@@H](C)C(=O)O)[C@@H](C)CC)C(C)C)C(C)C
> 100,> 100,> 100,> 100,> 100,> 100,50,> 100,> 100,> 100,CCCCCCCCCCCCCCCC(=O)N[C@@H](C(=O)N[C@H](CCN)C(=O)NCC(=O)N[C@H](CO)C(=O)N[C@H](Cc1c[nH]c2ccccc12)C(=O)N[C@@H](CO)C(=O)N[C@@H](CCN)C(=O)N[C@H](CCN)C(=O)N[C@@H](Cc1ccccc1)C(=O)N[C@@H](CCC(=O)O)C(=O)N[C@H](C(=O)N[C@@H](C(=O)N[C@@H](C)C(=O)O)[C@@H](C)CC)C(C)C)C(C)C
> 100,100,> 100,> 100,> 100,100,1.56,> 100,> 100,6.25,CC[C@H](C)[C@@H](NC(=O)[C@@H](NC(=O)[C@H](CCC(=O)O)NC(=O)[C@H](Cc1ccccc1)NC(=O)[C@@H](CCN)NC(=O)[C@H](CCN)NC(=O)[C@H](CO)NC(=O)[C@@H](Cc1c[nH]c2ccccc12)NC(=O)[C@@H](CO)NC(=O)CNC(=O)[C@@H](CCN)NC(=O)[C@H](NC(=O)CCC1c2ccccc2-c2ccccc21)C(C)C)C(C)C)C(=O)N[C@@H](C)C(=O)O
> 100,50,> 100,> 100,25,12.5,1.56,12.5,> 100,6.25,CC[C@H](C)[C@@H](NC(=O)[C@@H](NC(=O)[C@H](CCC(=O)O)NC(=O)[C@H](Cc1ccccc1)NC(=O)[C@@H](CCN)NC(=O)[C@H](CCN)NC(=O)[C@H](CO)NC(=O)[C@@H](Cc1c[nH]c2ccccc12)NC(=O)[C@@H](CO)NC(=O)CNC(=O)[C@@H](CCN)NC(=O)[C@H](NC(=O)CCc1c2ccccc2cc2ccccc12)C(C)C)C(C)C)C(=O)N[C@@H](C)C(=O)O
50,25,50,50,12.5,12.5,1.56,6.25,50,6.25,CC[C@H](C)[C@@H](NC(=O)[C@@H](NC(=O)[C@H](CCC(=O)O)NC(=O)[C@H](Cc1ccccc1)NC(=O)[C@@H](CCN)NC(=O)[C@H](CCN)NC(=O)[C@H](CO)NC(=O)[C@@H](Cc1c[nH]c2ccccc12)NC(=O)[C@@H](CO)NC(=O)CNC(=O)[C@@H](CCN)NC(=O)[C@H](NC(=O)CC12CC3CC(CC(C3)C1)C2)C(C)C)C(C)C)C(=O)N[C@@H](C)C(=O)O
> 100,> 100,> 100,> 100,> 100,> 100,> 100,> 100,> 100,> 100,CC[C@H](C)[C@@H](NC(=O)[C@@H](NC(=O)[C@H](CCC(=O)O)NC(=O)[C@H](Cc1ccccc1)NC(=O)[C@@H](CCN)NC(=O)[C@H](CCN)NC(=O)[C@H](CO)NC(=O)[C@@H](Cc1c[nH]c2ccccc12)NC(=O)[C@@H](CO)NC(=O)CNC(=O)[C@@H](CCN)NC(=O)[C@H](NC(=O)COCCOCCOC)C(C)C)C(C)C)C(=O)N[C@@H](C)C(=O)O
> 100,> 100,> 100,> 100,> 100,50,50,50,> 100,50,CC[C@H](C)[C@@H](NC(=O)[C@@H](NC(=O)[C@H](CCC(=O)O)NC(=O)[C@H](Cc1ccccc1)NC(=O)[C@@H](CCN)NC(=O)[C@H](CCN)NC(=O)[C@H](CO)NC(=O)[C@@H](Cc1c[nH]c2ccccc12)NC(=O)[C@@H](CO)NC(=O)CNC(=O)[C@@H](CCN)NC(=O)[C@H](NC(=O)CCCC[C@@H]1SC[C@@H]2NC(=O)N[C@@H]21)C(C)C)C(C)C)C(=O)N[C@@H](C)C(=O)O
